Laboratory results reported in patent US8580832B2, “Substituted phenoxy aminothiazolones as estrogen related receptor-α modulators” (Janssen Pharmaceutica N.V., priority 2007, dated 2013).

Target: T1, ERR1 (also known as ERR-α or ERR-1) (Homo sapiens, UniProt P11474)
T1 construct: the ^6His-tagged-ERR1 LBD
T1 sequence (P11474 193-421 limits assumed): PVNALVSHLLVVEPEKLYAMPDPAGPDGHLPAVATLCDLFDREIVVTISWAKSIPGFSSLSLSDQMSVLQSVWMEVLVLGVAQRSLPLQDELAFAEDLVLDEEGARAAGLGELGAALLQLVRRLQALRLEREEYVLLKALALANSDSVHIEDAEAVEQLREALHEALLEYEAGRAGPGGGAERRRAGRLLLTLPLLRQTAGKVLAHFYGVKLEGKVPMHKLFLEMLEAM
Assay: TR-FRET assay: disruption of co-activator peptide binding to ERR1 LBD
Assay type: biochemical
Details: 6His-tagged ERR1 LBD 6 nM, GST-SRC-2 peptide 6 nM, 25° C., 4-18 hours; average of 3 independent experiments
Experimental: Time-Resolved Fluorescence Resonance Energy Transfer (TR-FRET) experiments were performed to examine the functional response of ERR1 (also known as ERR-α or ERR-1) ligands. The TR-FRET assay described herein relied on the conformation of ERR1 for binding to a co-activator peptide: when a test compound binds to ERR1 and alters its conformation, it can disrupt the binding of the co-activator peptide. The components of this homogeneous secondary assay included: the ^6His-tagged-ERR1 LBD, a GST-labeled-hSRC2 co-activator polypeptide and a fluorescent donor/acceptor pair from CIS bio international htrf/bioassays (Bedford, Mass.) using both an α-GST Europium Cryptate (Eu) label and an α^6His-XL665 (allophycocyanin) fluorophore.
For TR-FRET measurements, the reaction was buffered in 25 mM Tris pH 8, 2.5 mM Hepes, 20 mM KCl, 1 mM DTT, and 0.05 mg/mL BSA (-lipids). […] Reactions were allowed to reach equilibrium at 25° C. for 4-18 hours before collecting data on the Analyst from LJL Biosystems (Molecular Devices Sunnyvale, Calif.). […] Dose response curves were fitted using a hyperbolic equation and the data reported is the average of 3 independent experiments.

SMILES	EC50 [nM]
COC(=O)c1ccc(Oc2ccc(/C=C3\SC(N4CCCC(O)C4)=NC3=O)cc2OC)c(C(F)(F)F)c1 (stereo not shown) [Example 53, 4-{4-[2-(3-Hydroxy-piperidin-1-yl)-4-oxo-4H-thiazol-5-ylidenemethyl]-2-methoxy-phenoxy}-3-trifluoromethyl-benzoic acid methyl ester]	42
COC(=O)c1ccc(Oc2ccc(/C=C3\SC(N4CCNC(=O)C4)=NC3=O)cc2OC)c(C(F)(F)F)c1 [Example 54, 4-{2-Methoxy-4-[4-oxo-2-(3-oxo-piperazin-1-yl)-4H-thiazol-5-ylidenemethyl]-phenoxy}-3-trifluoromethyl-benzoic acid methyl ester]	74
CCOc1cc(/C=C2\SC(N3CC(C(=O)O)C3)=NC2=O)ccc1Oc1ccc(C#N)cc1C(F)(F)F [Example 55, 1-{5-[4-(4-Cyano-2-trifluoromethyl-phenoxy)-3-ethoxy-benzylidene]-4-oxo-4,5-dihydro-thiazol-2-yl}-azetidine-3-carboxylic acid]	16
CCOc1cc(/C=C2\SC(N(CCO)CCO)=NC2=O)ccc1Oc1ccc(C#N)cc1C(F)(F)F [Example 56, 4-(4-{2-[Bis-(2-hydroxy-ethyl)-amino]-4-oxo-4H-thiazol-5-ylidenemethyl}-2-ethoxy-phenoxy)-3-trifluoromethyl-benzonitrile]	150
CCOc1cc(/C=C2\SC(N3CCNC(=O)C3)=NC2=O)ccc1Oc1ccc(C#N)cc1C(F)(F)F [Example 57, 4-{2-Ethoxy-4-[4-oxo-2-(3-oxo-piperazin-1-yl)-4H-thiazol-5-ylidenemethyl]-phenoxy}-3-trifluoromethyl-benzonitrile]	39
COc1cc(/C=C2\SC(N3CCCC(O)C3)=NC2=O)ccc1Oc1ccc(C(F)(F)F)cc1C(F)(F)F (stereo not shown) [Example 58, 5-[4-(2,4-Bis-trifluoromethyl-phenoxy)-3-methoxy-benzylidene]-2-(3-hydroxy-piperidin-1-yl)-thiazol-4-one]	24
COc1cc(/C=C2\SC(N3CCNC(=O)C3)=NC2=O)ccc1Oc1ccc(C(F)(F)F)cc1C(F)(F)F [Example 59, 4-{5-[4-(2,4-Bis-trifluoromethyl-phenoxy)-3-methoxy-benzylidene]-4-oxo-4,5-dihydro-thiazol-2-yl}-piperazin-2-one]	140
COc1cc(/C=C2\SC(NCCN3CCCC3=O)=NC2=O)ccc1Oc1ccc(Cl)cc1C(F)(F)F [Example 60, 5-[4-(4-Chloro-2-trifluoromethyl-phenoxy)-3-methoxy-benzylidene]-2-[2-(2-oxo-pyrrolidin-1-yl)-ethylamino]-thiazol-4-one]	4
COc1cc(/C=C2\SC(N3CCNC(=O)C3)=NC2=O)ccc1Oc1ccc(Cl)cc1C(F)(F)F [Example 61, 4-{5-[4-(4-Chloro-2-trifluoromethyl-phenoxy)-3-methoxy-benzylidene]-4-oxo-4,5-dihydro-thiazol-2-yl}-piperazin-2-one]	1
COc1cc(/C=C2\SC(N(C)CC(O)CO)=NC2=O)ccc1Oc1ccc(Cl)cc1C(F)(F)F (stereo not shown) [Example 62, 5-[4-(4-Chloro-2-trifluoromethyl-phenoxy)-3-methoxy-benzylidene]-2-[(2,3-dihydroxy-propyl)-methyl-amino]-thiazol-4-one]	3
COc1cc(/C=C2\SC(NCCN3CCCC3=O)=NC2=O)ccc1Oc1ccc(C#N)cc1Cl [Example 63, 3-Chloro-4-(2-methoxy-4-{4-oxo-2-[2-(2-oxo-pyrrolidin-1-yl)-ethylamino]-4H-thiazol-5-ylidenemethyl}-phenoxy)-benzonitrile]	75
COc1cc(/C=C2\SC(N3CCNC(=O)C3)=NC2=O)ccc1Oc1ccc(C#N)cc1Cl [Example 64, 3-Chloro-4-{2-methoxy-4-[4-oxo-2-(3-oxo-piperazin-1-yl)-4H-thiazol-5-ylidenemethyl]-phenoxy}-benzonitrile]	44
COc1cc(/C=C2\SC(N(C)CC(O)CO)=NC2=O)ccc1Oc1ccc(C#N)cc1Cl (stereo not shown) [Example 65, 3-Chloro-4-(4-{2-[(2,3-dihydroxy-propyl)-methyl-amino]-4-oxo-4H-thiazol-5-ylidenemethyl}-2-methoxy-phenoxy)-benzonitrile]	89
O=C1CN(C2=NC(=O)/C(=C/c3ccc(Oc4ccc(Cl)cc4C(F)(F)F)c(F)c3)S2)CCN1 [Example 66, 4-{5-[4-(4-Chloro-2-trifluoromethyl-phenoxy)-3-fluoro-benzylidene]-4-oxo-4,5-dihydro-thiazol-2-yl}-piperazin-2-one]	4
O=C1N=C(NCCCN2CCCC2=O)S/C1=C\c1ccc(Oc2ccc(Cl)cc2C(F)(F)F)c(F)c1 [Example 67, 5-[4-(4-Chloro-2-trifluoromethyl-phenoxy)-3-fluoro-benzylidene]-2-[3-(2-oxo-pyrrolidin-1-yl)-propylamino]-thiazol-4-one]	3
COC(=O)[C@H](CO)NC1=NC(=O)/C(=C/c2ccc(Oc3ccc(C#N)cc3C(F)(F)F)c(OC)c2)S1 [Example 68, 2-{5-[4-(4-Cyano-2-trifluoromethyl-phenoxy)-3-methoxy-benzylidene]-4-oxo-4,5-dihydro-thiazol-2-ylamino}-3-hydroxy-propionic acid methyl ester]	19
COc1cc(/C=C2\SC(NCCOCCO)=NC2=O)ccc1Oc1ccc(C#N)cc1C(F)(F)F [Example 69, 4-(4-{2-[2-(2-Hydroxy-ethoxy)-ethylamino]-4-oxo-4H-thiazol-5-ylidenemethyl}-2-methoxy-phenoxy)-3-trifluoromethyl-benzonitrile]	17
COc1cc(/C=C2\SC(NCCn3ccnc3)=NC2=O)ccc1Oc1ccc(C#N)cc1C(F)(F)F [Example 70, 4-{4-[2-(2-Imidazol-1-yl-ethylamino)-4-oxo-4H-thiazol-5-ylidenemethyl]-2-methoxy-phenoxy}-3-trifluoromethyl-benzonitrile]	24
COc1cc(/C=C2\SC(NCCNC(C)=O)=NC2=O)ccc1Oc1ccc(C#N)cc1C(F)(F)F [Example 71, N-(2-{5-[4-(4-Cyano-2-trifluoromethyl-phenoxy)-3-methoxy-benzylidene]-4-oxo-4,5-dihydro-thiazol-2-ylamino}-ethyl)-acetamide]	13
COc1cc(/C=C2\SC(NCCn3cncn3)=NC2=O)ccc1Oc1ccc(C#N)cc1C(F)(F)F [Example 72, 4-{2-Methoxy-4-[4-oxo-2-(2-[1,2,4]triazol-1-yl-ethylamino)-4H-thiazol-5-ylidenemethyl]-phenoxy}-3-trifluoromethyl-benzonitrile]	16
COc1cc(/C=C2\SC(NCCC(=O)N3CCOCC3)=NC2=O)ccc1Oc1ccc(C#N)cc1C(F)(F)F [Example 73, 4-{2-Methoxy-4-[2-(3-morpholin-4-yl-3-oxo-propylamino)-4-oxo-4H-thiazol-5-ylidenemethyl]-phenoxy}-3-trifluoromethyl-benzonitrile]	13
COc1cc(/C=C2\SC(NCCNC(N)=O)=NC2=O)ccc1Oc1ccc(C#N)cc1C(F)(F)F [Example 74, (2-{5-[4-(4-Cyano-2-trifluoromethyl-phenoxy)-3-methoxy-benzylidene]-4-oxo-4,5-dihydro-thiazol-2-ylamino}-ethyl)-urea]	17
COc1cc(/C=C2\SC(N(C)OC)=NC2=O)ccc1Oc1ccc(C#N)cc1C(F)(F)F [Example 75, 4-{2-Methoxy-4-[2-(methoxy-methyl-amino)-4-oxo-4H-thiazol-5-ylidenemethyl]-phenoxy}-3-trifluoromethyl-benzonitrile]	32
COc1cc(/C=C2\SC(NCC(=O)O)=NC2=O)ccc1Oc1ccc(C#N)cc1C(F)(F)F [Example 76, {5-[4-(4-Cyano-2-trifluoromethyl-phenoxy)-3-methoxy-benzylidene]-4-oxo-4,5-dihydro-thiazol-2-ylamino}-acetic acid]	16
CNC1=NC(=O)/C(=C/c2ccc(Oc3ccc(C#N)cc3C(F)(F)F)c(OC)c2)S1 [Example 77, 4-[2-Methoxy-4-(2-methylamino-4-oxo-4H-thiazol-5-ylidenemethyl)-phenoxy]-3-trifluoromethyl-benzonitrile]	16
COc1cc(/C=C2\SC(N3CCC(C(N)=O)CC3)=NC2=O)ccc1Oc1ccc(C#N)cc1C(F)(F)F [Example 78, 1-{5-[4-(4-Cyano-2-trifluoromethyl-phenoxy)-3-methoxy-benzylidene]-4-oxo-4,5-dihydro-thiazol-2-yl}-piperidine-4-carboxylic acid amide]	14
COC(=O)C1CCN(C2=NC(=O)/C(=C/c3ccc(Oc4ccc(C#N)cc4C(F)(F)F)c(OC)c3)S2)CC1 [Example 79, 1-{5-[4-(4-Cyano-2-trifluoromethyl-phenoxy)-3-methoxy-benzylidene]-4-oxo-4,5-dihydro-thiazol-2-yl}-piperidine-4-carboxylic acid methyl ester]	25
COc1cc(/C=C2\SC(NCC3CNCCO3)=NC2=O)ccc1Oc1ccc(C#N)cc1C(F)(F)F (stereo not shown) [Example 80, 4-(2-Methoxy-4-{2-[(morpholin-2-ylmethyl)-amino]-4-oxo-4H-thiazol-5-ylidenemethyl}-phenoxy)-3-trifluoromethyl-benzonitrile]	35
